Measured values published in patent US20240139333A1, “2,6-DICHLOROPHENYL ESTER COMPOUNDS AND USE THEREOF” (Fusion Pharmaceuticals Inc., priority 2021, published 2024).

Key:
[1] = Nucleophilic reactivity study with L-Lysine; details: L-Lysine 5 equiv, 15 min, 22±2° C.
How it was run: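 Compound (1 eq.) in acetonitrile mixed with L-lysine monohydrochloride (5 eq.) and diisopropylethylamine (5 eq.) in water, stirred at 22±2 °C. Aliquots taken at 15, 30, 60 and 120 min and analysed by HPLC-MS.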

[2] = Comparative active ester reactivity study with HOA nucleophile (benzhydroxamic acid); details: Benzhydroxamic Acid 1 eq., 22±2° C.
How it was run: (§1)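 Test ester (1 eq.) in acetonitrile was combined with nucleophile (1 eq.) in water and stirred at room temperature (22±2 °C) for 4 hours. Aliquots taken at 15, 30, 60, 120 and 240 min were analysed by HPLC-MS.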

[3] = Active ester reactivity study with amino acids (N-Acetyl-L-Cysteine); details: N-Acetyl-L-Cysteine 5 eq., 22±2° C.
Procedure: (§2) General Experimental Protocol for Nucleophilic Reactivity Study with Amino Acids
(§3) To a 4 mL scintillation vial containing Compound A or C (1 eq.) was added a stir bar followed by 70 μL of HPLC grade acetonitrile. In another 4 mL scintillation vial containing a respective amino acid (1-5 eq.) was added 130 μL HPLC grade water followed by diisopropylethylamine (5 eq.). The solutions were combined and allowed to stir at room temperature (22±2° C.) for 4 hours. Timed aliquots at time (T)=15, 30, 60, 120 and 240 minutes were taken and analyzed by HPLC-MS using elution method 1 (Table 6).

[4] = DMSO stability study; assay type: physicochemical
Procedure: To a 4 mL scintillation vial containing Compound A-E (in respective experiments; 4 mg) was added a stir bar followed by 500 μL of anhydrous dimethyl sulfoxide and was allowed to stir at room temperature (22±2° C.) for 4 hours. Timed aliquots at time (T)=15, 30, 60, 120 and 240 minutes were taken, dissolved in water to achieve 2% DMSO composition and analyzed by HPLC-MS using elution method 1 (Table 5).

[5] = Comparative active ester reactivity study with HOA nucleophile (N-hydroxy-N-methylbenzamide); details: N-Hydroxy-N-methylbenzamide 1 eq., 22±2° C.
How it was run: as §1

[6] = Active ester reactivity study with amino acids (Z-Arg-OH); details: Z-Arg-OH 1 eq., 22±2° C.
Procedure: as §2, §3

[7] = pH stability study; assay type: physicochemical; details: 20° C.
How it was run: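 Compounds dissolved at 0.2 mg/mL in pH 3, 5 or 7 citric acid/Na2HPO4 buffer or pH 9 carbonate/bicarbonate buffer, held at 20° C. Aliquots analysed by HPLC-MS at 15, 30, 60, 120, 240 and 480 minutes.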

[8] = Active ester reactivity study with amino acids (Z-Ser-OH); details: Z-Ser-OH 1 eq., 22±2° C.
Procedure: as §2, §3

[9] = Comparative active ester reactivity study with HOPO nucleophile; details: 1,2-HOPO 1 eq., 22±2° C.
How it was run: as §1

O=C(CCc1cccnc1)Oc1c(F)c(F)cc(F)c1F [Compound C, 2,3,5,6-Tetrafluorophenyl-3-(pyridin-3-yl)propanoate]
% Active Ester Remaining [1]: 0%
% Active Ester Remaining ([2]; 15 min): 58.86%
% Active Ester Remaining ([2]; 30 min): 45.60%
% Active Ester Remaining ([2]; 60 min): 32.39%
% Active Ester Remaining ([2]; 120 min): 18.88%
% Active Ester Remaining ([2]; 240 min): 9.26%
% Active Ester Remaining ([3]; 15 min): 95.12%
% Active Ester Remaining ([3]; 30 min): 91.95%
% Active Ester Remaining ([3]; 60 min): 85.25%
% Active Ester Remaining ([3]; 120 min): 56.62%
% Active Ester Remaining ([3]; 240 min): 0%
% Active Ester Remaining in DMSO at 22 ± 2° C. ([4]; 15 min): 96.55%
% Active Ester Remaining in DMSO at 22 ± 2° C. ([4]; 30 min): 94.71%
% Active Ester Remaining in DMSO at 22 ± 2° C. ([4]; 60 min): 93.91%
% Active Ester Remaining in DMSO at 22 ± 2° C. ([4]; 120 min): 92.60%
% Active Ester Remaining in DMSO at 22 ± 2° C. ([4]; 240 min): 88.57%
% Active Ester Remaining ([5]; 15 min): 81.12%
% Active Ester Remaining ([5]; 30 min): 72.43%
% Active Ester Remaining ([5]; 60 min): 61.68%
% Active Ester Remaining ([5]; 120 min): 50.09%
% Active Ester Remaining ([5]; 240 min): 37.80%
% Active Ester Remaining ([6]; 15 min): 22.34%
% Active Ester Remaining ([6]; 30 min): 3.47%
% Active Ester Remaining ([6]; 60 min): 0.36%
% Active Ester Remaining ([6]; 120 min): 0%
% Remaining ([7]; pH 3 buffer, 15 min): 98.19%
% Remaining ([7]; pH 3 buffer, 30 min): 93.92%
% Remaining ([7]; pH 3 buffer, 60 min): 89.61%
% Remaining ([7]; pH 3 buffer, 120 min): 82.13%
% Remaining ([7]; pH 3 buffer, 240 min): 68.98%
% Remaining ([7]; pH 3 buffer, 480 min): 48.46%
% Remaining ([7]; pH 5 buffer, 15 min): 96.06%
% Remaining ([7]; pH 5 buffer, 30 min): 86.91%
% Remaining ([7]; pH 5 buffer, 60 min): 79.07%
% Remaining ([7]; pH 5 buffer, 120 min): 65.20%
% Remaining ([7]; pH 5 buffer, 240 min): 45.26%
% Remaining ([7]; pH 5 buffer, 480 min): 20.20%
% Remaining ([7]; pH 7 buffer, 15 min): 94.61%
% Remaining ([7]; pH 7 buffer, 30 min): 83.82%
% Remaining ([7]; pH 7 buffer, 60 min): 73.25%
% Remaining ([7]; pH 7 buffer, 120 min): 54.53%
% Remaining ([7]; pH 7 buffer, 240 min): 27.99%
% Remaining ([7]; pH 7 buffer, 480 min): 5.60%
% Remaining ([7]; pH 9 buffer, 15 min): 7.60%
% Remaining ([7]; pH 9 buffer, 30 min): 1.71%
% Remaining ([7]; pH 9 buffer, 60 min): 0.49%
% Remaining ([7]; pH 9 buffer, 120 min): 0%
% Active Ester Remaining ([8]; 15 min): 41.75%
% Active Ester Remaining ([8]; 30 min): 28.90%
% Active Ester Remaining ([8]; 60 min): 10.96%
% Active Ester Remaining ([8]; 120 min): 2.89%
% Active Ester Remaining ([8]; 240 min): 0.12%
% Active Ester Remaining ([9]; 15 min): 40.02%
% Active Ester Remaining ([9]; 30 min): 17.81%
% Active Ester Remaining ([9]; 60 min): 9.78%
% Active Ester Remaining ([9]; 120 min): 5.19%
% Active Ester Remaining ([9]; 240 min): 0.94%
